Test results as given in patent EP0154476A2, “Steroid compound” (STERWIN AG., priority 1984, dated 1985).

What was measured:
plasma cortisol = plasma cortisol by radioimmunoassay after oral trilostane in volunteers; format: in vivo, healthy male volunteers; conditions: trilostane 2 x 60 mg capsules orally, fasted, plasma up to 8 hours; during sustained plasma peaks of trilostane and 17-keto metabolite
[1] = cytochemical bioassay in unfixed tissue sections of dioestrous rat ovary (formazan dye absorbance); format: biochemical; conditions: versus trilostane, weight for weight basis, standard curves 0.15 to 2.5 µM (nM), 95% confidence 1.4-2.1
Procedure: In a first study, a cytochemical bioassay was employed to determine the relative potency of the 17- keto trilostane metabolite versus trilostane, in three experiments. From the results obtained, standard curves covering the range from 0.15 to 2.5nM were prepared for the metabolite and the parent compound. Potency estimates were calculated by computer analysis of the relative slopes and errors around each dose point.
The cytochemical bioassay is based upon the reaction, within serial unfixed tissue sections of the dioestrous rat ovary, between the enzyme, […] -A^5-3-oxosteroid isomerase (38 HSD) contained therein, and added substrate, cofactors and a colourless tetrazolium salt. The reaction leads to the deposition of an intensely coloured blue insoluble formazan dye in the sections, and the amount of dye produced within a section over a given period (absorbance) is measured by means of a scanning integrating densitometer. If an inhibitor of 3a HSD, such as trilostane or 17-keto trilostane metabolite is added to the system, the amount of blue dye formed will be reduced.
The bioassay curves obtained are as shown in Figure 1 of the accompanying drawings, results being expressed as the mean +SD(n=4).

Compound | cortisol secretion (plasma cortisol) | relative in vitro potency compared with the parent compound [1] | relative in vitro potency compared with the parent compound ([1]; listed as metabolite) [times]
C[C@]12CC[C@H]3[C@@H](CC[C@@]45O[C@@H]4C(O)=C(C#N)C[C@]35C)[C@@H]1CC[C@@H]2O [trilostane, 2a-cyano-4a,5a-epoxyandrostan-17a-ol-3-one] | suppressed |  | 
C[C@]12CC[C@H]3[C@@H](CC[C@@]45O[C@@H]4C(=O)[C@H](C#N)C[C@]35C)[C@@H]1CCC2=O [17-keto metabolite, 2α-cyano-4α,5α-epoxyandrostan-3,17-dione] |  | about 1.7 times | 1.71
